# Results: patent publication US20230414775A1, “TUBULYSINS AND PROTEIN-TUBULYSIN CONJUGATES” (priority 2021, published 2023)
# Read-outs that look alike come from different tables or passages of the source.
# Key:
# HCT15 cells = test: HCT15 anti-proliferation / cell killing assay (CellTiter-Glo), with or without verapamil; type: cell-based, human; details: Homo sapiens
# Description: The cell line used in the anti-proliferation assays was HCT15, a human colon, colorectal carcinoma cell line. The HCT15 cells were grown in RPMI medium 1640+10% FBS. To run the assay, the cells (40 μL, 400 cells) were added to each well in a 384-well plate and incubated for twenty-four hours at 37° C. with 5% CO2. One hour before adding compounds, freshly dilute Verapamil to 0.2 mg/ml in ddH2O. Add 1 μL/well diluted Verapamil to Verapamil treatment wells and 1 μL/well ddH2O to the non-Verapamil treatment wells. Return plates to the incubator at 37° C. with 5% CO2. Then the cells were treated with test compounds at various concentrations using HPD300, and then normalize the DMSO to 0.5%. The control wells contained cells and the medium but lack the test compounds. The plates were incubated for 120 hours at 37° C. with 5% CO2. CTG reagent was then added to the wells (25 μL). After the plates were shaken for 10 min and then incubated for 10 min at room temperature, paste the clear bottom with white back seal and record luminescence with Envision. The inhibition % was calculated according to the following equation: inhibition %=[1−(assay-blank)/(control-blank)]×100.
# SK-BR-3 cells = test: SK-BR-3 anti-proliferation assay for payloads (CellTiter-Glo); type: cell-based; details: Homo sapiens, free payload, 120-144 h, read-out: SKBR3
# Description: The cell line used in the anti-proliferation assays was SK-BR-3, a human breast, adenocarcinoma (pleural effusion) cell line. The cells were grown in McCoy's 5a Medium+10% FBS. To run the assay for payloads, the cells (40 μL, 700 cells) were added to each well in a 384-well plate and incubated for 24 hours at 37° C. with 5% CO2. Then the cells were treated with test compounds at various concentrations using HPD300, and then normalize the DMSO to 0.5%. The control wells contain cells and the medium but lack the test compounds. The plates were incubated for 120 h at 37° C. with 5% CO2. To run the assay for ADCs and some key payloads, the cells (80 μL, 1000 cells) were added to each well in a 96-well plate and incubated for twenty-four hours at 37° C. with 5% CO2. Next, the ADCs or payloads were diluted with Opti-Mem with 0.1% BSA. The cells were treated with test compounds or ADCs (20 μL) at various concentrations in appropriate cell culture medium (total volume, 0.1 mL). The final concentration of DMSO was adjusted to 0.2% and the Opti-Mem with 0.1% BSA was adjusted to 5%. The control wells contained cells and the medium but lacked the test compounds. The plates were incubated for 144 h at 37° C. with 5% CO2. CTG reagent was then added to the wells (25 μL/384-well or 100 μL/96-well). After the plates were shaken for 10 min and then incubated for 10 min at room temperature, paste the clear bottom with white back seal and record luminescence with Envision. The inhibition % was calculated according to the following equation: inhibition %=[1-(assay-blank)/(control-blank)]×100.
# [1] = HCT15 cells, no verapamil, 120 h (5 days), read-out: HCT-15
# [2] = HCT-15, HCT15 cells pre-treated with verapamil, 120 h, read-out: HCT-15 with verapamil
SMILES,IC50 (HCT15 cells; [1]) [nM],IC50 (HCT15 cells; [2]) [nM],IC50 (SK-BR-3 cells) [nM]
"CCCCCCN(C(=O)[C@@H](NC(=O)[C@H]1CCCCN1CCO)[C@@H](C)CC)[C@H](C[C@@H](OCC)c1nc(C(=O)N[C@@H](Cc2ccc(NC(=O)CN)cc2)CC(C)(C)C(=O)O)cs1)C(C)C [PA9, (S)-5-(4-(2-aminoacetamido)phenyl)-4-(2-((1R,3R)-1-ethoxy-3-((2S,3S)—N-hexyl-2-((R)-1-(2-hydroxyethyl)piperidine-2-carboxamido)-3-methylpentanamido)-4-methylpentyl)thiazole-4-carboxamido)-2,2-dimethylpentanoic acid]",9.89,1.08,5.38
"CCCCCCN(C(=O)[C@@H](NC(=O)[C@H]1CCCCN1C)[C@@H](C)CC)[C@H](C[C@@H](OC(C)=O)c1nc(C(=O)N[C@@H](Cc2ccc(N)cc2)CC(C)(C)C(=O)NCC(=O)O)cs1)C(C)C (racemic) [PA29, Rac-((R)-4-(2-((1S,3S)-1-acetoxy-3-((2R,3R)—N-hexyl-3-methyl-2-((S)-1-methylpiperidine-2-carboxamido)pentanamido)-4-methylpentyl)thiazole-4-carboxamido)-5-(4-aminophenyl)-2,2-dimethylpentanoyl)glycine]",97.1,9.7,1.47
"CCCCCCN(C(=O)[C@@H](NC(=O)[C@@]1(C)CCCN1C(=O)CN)[C@@H](C)CC)[C@H](C[C@@H](OC(C)=O)c1nc(C(=O)N[C@@H](Cc2ccc(N)c(F)c2)CC(C)(C)C(=O)O)cs1)C(C)C [PA1, (4S)-4-({2-[(1R,3R)-1-(acetyloxy)-3-[(2S,3S)-2-{[(2R)-1-(2-aminoacetyl)-2-methylpyrrolidin-2-yl]formamido}-N-hexyl-3-methylpentanamido]-4-methylpentyl]-1,3-thiazol-4-yl}formamido)-5-(4-amino-3-fluorophenyl)-2,2-dimethylpentanoic acid]",> 100,> 100,
"CCCCCCN(C(=O)[C@@H](NC(=O)[C@H]1CCCCN1C)[C@@H](C)CC)[C@H](C[C@@H](OC(C)=O)c1nc(C(=O)N[C@@H](Cc2ccc(NC(=O)CN)cc2)CC(C)(C)C(=O)O)cs1)C(C)C [Compound P28, reference compound]",0.172,0.107,0.039
CCCCCCN(C(=O)[C@@H](NC(=O)[C@H]1CCCCO1)[C@@H](C)CC)[C@H](C[C@@H](OCC)c1nc(C(=O)N[C@@H](Cc2ccc(N)cc2)CC(C)(C)C(=O)O)cs1)C(C)C [PA28],154,,> 100
"CCCCCCN(C(=O)[C@@H](NC(=O)[C@H]1CCCCN1C)[C@@H](C)CC)[C@H](C[C@@H](OC(=O)NCCOCCOCCO)c1nc(C(=O)N[C@@H](Cc2ccc(N)c(F)c2)CC(C)(C)C(=O)O)cs1)C(C)C (mixture of isomers) [PA25, (S)-5-(4-amino-3-fluorophenyl)-4-(2-((3RS,6SR,8SR)-3-((RS)-sec-butyl)-5-hexyl-19-hydroxy-6-isopropyl-1-((R)-1-methylpiperidin-2-yl)-1,4,10-trioxo-9,14,17-trioxa-2,5,11-triazanonadecan-8-yl)thiazole-4-carboxamido)-2,2-dimethylpentanoic acid]",0.477,0.158,1.6
"CCCCCCN(C(=O)[C@@H](NC(=O)[C@@]1(C)CCCN1C(=O)CN)[C@@H](C)CC)[C@H](C[C@@H](OC(C)=O)c1nc(C(=O)N[C@@H](Cc2ccc(O)cc2)CC(C)(C)C(=O)O)cs1)C(C)C [PA2, (4S)-4-({2-[(1R,3R)-1-(acetyloxy)-3-[(2S,3S)-2-{[(2R)-1-(2-aminoacetyl)-2-methylpyrrolidin-2-yl]formamido}-N-hexyl-3-methylpentanamido]-4-methylpentyl]-1,3-thiazol-4-yl}formamido)-5-(4-hydroxyphenyl)-2,2-dimethylpentanoic acid]",> 100,,
